Tests used:
Assay type in all cases: in vivo
[1] = system: Myzus persicae (Green Peach Aphid); assay: Activity against Myzus persicae (green peach aphid), systemic activity, pea seedlings; conditions: 144 h, test rate 24 ppm, roots in test solution, 6 days
Procedure: Example B8: Activity Against Myzus persicae (Green Peach Aphid) Systemic Activity
Roots of pea seedlings infested with an aphid population of mixed ages were placed directly into aqueous test solutions prepared from 10,000 DMSO stock solutions. The samples were assessed for mortality 6 days after placing seedlings into test solutions.

[2] = system: Diabrotica balteata (Corn Root Worm); assay: Activity against Diabrotica balteata (corn root worm), maize sprouts sprayed; conditions: 96 h, application rate 200 ppm, L2 larvae, 4 days after infestation, read-out: effect in at least one of the two categories (mortality or growth inhibition)
Procedure: Example B1: Activity Against Diabrotica balteata (Corn Root Worm)
Maize sprouts placed onto an agar layer in 24-well microtiter plates were treated with aqueous test solutions prepared from 10,000 ppm DMSO stock solutions by spraying. After drying, the plates were infested with L2 larvae (6 to 10 per well). The samples were assessed for mortality and growth inhibition in comparison to untreated samples 4 days after infestation.

[3] = system: Spodoptera littoralis (Egyptian Cotton Leaf Worm); assay: Activity against Spodoptera littoralis (Egyptian cotton leaf worm), cotton leaf discs; conditions: foliar, 72 h, application rate 200 ppm, L1 larvae, 3 days after infestation, read-out: control (mortality, anti-feedant effect or growth inhibition)
[4] = system: Euschistus heros (Neotropical Brown Stink Bug); assay: Activity against Euschistus heros (neotropical brown stink bug), soybean leaves sprayed; conditions: 120 h, application rate 200 ppm, N2 nymphs, 5 days after infestation, read-out: effect in at least one of the two categories (mortality or growth inhibition)
Procedure: Example B2: Activity Against Euschistus heros (Neotropical Brown Stink Bug)
Soybean leaves on agar in 24-well microtiter plates were sprayed with aqueous test solutions prepared from 10,000 ppm DMSO stock solutions. After drying the leaves were infested with N2 nymphs. The samples were assessed for mortality and growth inhibition in comparison to untreated samples 5 days after infestation.

[5] = system: Myzus persicae (Green Peach Aphid); assay: Activity against Myzus persicae (green peach aphid), feeding/contact activity; conditions: 144 h, application rate 200 ppm, feeding/contact, mixed ages, 6 days after infestation, read-out: mortality
Procedure: Example B4: Activity Against Myzus persicae (Green Peach Aphid) Feeding/Contact Activity
Sunflower leaf discs were placed onto agar in a 24-well microtiter plate and sprayed with aqueous test solutions prepared from 10,000 ppm DMSO stock solutions. After drying, the leaf discs were infested with an aphid population of mixed ages. The samples were assessed for mortality 6 days after infestation.

[6] = system: Plutella xylostella (Diamond Back Moth); assay: Activity against Plutella xylostella (diamond back moth), artificial diet; conditions: 192 h, application rate 200 ppm, eggs, 8 days after infestation, read-out: effect in at least one of the two categories (mortality or growth inhibition)

CCS(=O)(=O)c1cc(N(C)C(C)=O)cnc1-c1ncc2c(OCC(F)(F)C(F)(F)F)nccn12 [Compound P13, N-[5-ethylsulfonyl-6-[8-(2,2,3,3,3-penta-fluoropropoxy)imidazo [1,5-a]pyrazin-3-yl]-3-pyridyl]-N-methyl-acetamide]
≥ 80%: mortality at 24 ppm [1] | percent effect (mortality or growth inhibition) at 200 ppm [2] | percent control (mortality, anti-feedant effect or growth inhibition) at 200 ppm [3] | percent effect (mortality or growth inhibition) at 200 ppm [4] | mortality at 200 ppm [5] | percent effect (mortality or growth inhibition) at 200 ppm [6]

Reference: patent US20220061324A1, “PESTICIDALLY ACTIVE HETEROCYCLIC DERIVATIVES WITH SULFUR CONTAINING SUBSTITUENTS” (SYNGENTA CROP PROTECTION AG, priority 2018, published 2022)
